According to the supplement of paper PMC12350171:

Key:
[1] = test system: Bacteroides fragilis NT; test: IC25 growth inhibition; higher = less potent
How it was run: (§1)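 Overnight monocultures grown in mGAM were moved into pre-reduced plates containing twofold drug dilutions, at a starting OD578 of 0.01 with 1% DMSO (or water). Plates were kept anaerobic and read hourly at OD578 in a plate reader, with at least three biological replicates. For each concentration, the median area under the growth curve was made monotonic, and IC25 was the lowest concentration whose median fell below a cutoff, reported as a tested interval. That cutoff was 0.75.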

[2] = test system: Bacteroides thetaiotaomicron; test: IC25 growth inhibition; higher = less potent
How it was run: as §1

[3] = test system: Bacteroides uniformis; test: IC25 growth inhibition; higher = less potent
How it was run: as §1

[4] = test system: Bacteroides vulgatus; test: IC25 growth inhibition; higher = less potent
How it was run: as §1

[5] = test system: Clostridium bolteae; test: IC25 growth inhibition; higher = less potent
How it was run: as §1

[6] = test system: Clostridium perfringens; test: IC25 growth inhibition; higher = less potent
How it was run: as §1

[7] = test system: Clostridium ramosum; test: IC25 growth inhibition; higher = less potent
How it was run: as §1

[8] = test system: Clostridium saccharolyticum; test: IC25 growth inhibition; higher = less potent
How it was run: as §1

[9] = test system: Collinsella aerofaciens; test: IC25 growth inhibition; higher = less potent
How it was run: as §1

[10] = test system: Coprococcus comes; test: IC25 growth inhibition; higher = less potent
How it was run: as §1

[11] = test system: Dorea formicigenerans; test: IC25 growth inhibition; higher = less potent
How it was run: as §1

[12] = test system: Escherichia coli ED1a; test: IC25 growth inhibition; higher = less potent
How it was run: as §1

[13] = test system: Eubacterium rectale; test: IC25 growth inhibition; higher = less potent
How it was run: as §1

[14] = test system: Fusobacterium nucleatum subsp. Nucleatum; test: IC25 growth inhibition; higher = less potent
How it was run: as §1

[15] = test system: Parabacteroides merdae; test: IC25 growth inhibition; higher = less potent
How it was run: as §1

[16] = test system: Roseburia intestinalis; test: IC25 growth inhibition; higher = less potent
How it was run: as §1

[17] = test system: Ruminococcus gnavus; test: IC25 growth inhibition; higher = less potent
How it was run: as §1

[18] = test system: Salmonella enterica typhimurium; test: IC25 growth inhibition; higher = less potent
How it was run: as §1

[19] = test system: Shigella flexneri; test: IC25 growth inhibition; higher = less potent
How it was run: as §1

[20] = test system: Streptococcus parasanguinis; test: IC25 growth inhibition; higher = less potent
How it was run: as §1

[21] = test system: Streptococcus salivarius; test: IC25 growth inhibition; higher = less potent
How it was run: as §1

[22] = test system: Vibrio cholerae; test: IC25 growth inhibition; higher = less potent
How it was run: as §1

[23] = test system: Yersinia enterocolitica WA-314; test: IC25 growth inhibition; higher = less potent
How it was run: as §1

[24] = test system: Yersinia pseudotuberculosis; test: IC25 growth inhibition; higher = less potent
How it was run: as §1

[25] = test system: Com21 synthetic gut community; test: community biomass OD578 after 24 h drug treatment relative to untreated (fraction of untreated control); higher = more community growth; conditions: community: Com21 (Com20 + E. coli ED1a)
Method: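 Com21 (Com20 plus E. coli ED1a) was treated with drug for 24 h under anaerobic conditions in mGAM. Community OD578 was then measured and normalised to untreated Com21; mean of 3 biological replicates.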

[26] = drug pretreatment concentration 2.5 µM
[27] = drug pretreatment concentration 5 µM
[28] = drug pretreatment concentration 10 µM
[29] = drug pretreatment concentration 20 µM
[30] = drug pretreatment concentration 40 µM
[31] = drug pretreatment concentration 80 µM
[32] = drug pretreatment concentration 160 µM
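Wherever IC25 growth inhibition is given: lowest concentration where monotonic median growth AUC falls below 0.75 of drug-free control.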

## CCOC(=O)N1CCC(=C2c3ccc(Cl)cc3CCc3cccnc32)CC1 [Loratadine]
[1]
  IC25 growth inhibition: > 160 µM
[2]
  IC25 growth inhibition: > 160 µM
[3]
  IC25 growth inhibition: > 160 µM
[4]
  IC25 growth inhibition: > 160 µM
[5]
  IC25 growth inhibition: > 160 µM
[6]
  IC25 growth inhibition: > 160 µM
[7]
  IC25 growth inhibition: ≤ 80 µM
[8]
  IC25 growth inhibition: > 160 µM
[9]
  IC25 growth inhibition: > 160 µM
[10]
  IC25 growth inhibition: > 40 µM
[11]
  IC25 growth inhibition: > 160 µM
[12]
  IC25 growth inhibition: > 40 µM
[13]
  IC25 growth inhibition: > 160 µM
[14]
  IC25 growth inhibition: > 160 µM
[15]
  IC25 growth inhibition: ≤ 40 µM
[16]
  IC25 growth inhibition: > 160 µM
[17]
  IC25 growth inhibition: > 80 µM
[18]
  IC25 growth inhibition: > 40 µM
[19]
  IC25 growth inhibition: > 160 µM
[20]
  IC25 growth inhibition: > 160 µM
[21]
  IC25 growth inhibition: > 160 µM
[22]
  IC25 growth inhibition: > 160 µM
[23]
  IC25 growth inhibition: > 80 µM
[24]
  IC25 growth inhibition: > 40 µM
[25]; [26]
  community biomass OD578: 1
[25]; [27]
  community biomass OD578: 1.01
[25]; [28]
  community biomass OD578: 1.02
[25]; [29]
  community biomass OD578: 1.01
[25]; [30]
  community biomass OD578: 0.941

## CC(=O)N1CCN(c2ccc(OCC3COC(Cn4ccnc4)(c4ccc(Cl)cc4Cl)O3)cc2)CC1 (stereo unspecified) [Ketoconazole]
[1]
  IC25 growth inhibition: ≤ 80 µM
[2]
  IC25 growth inhibition: ≤ 80 µM
[3]
  IC25 growth inhibition: ≤ 40 µM
[4]
  IC25 growth inhibition: ≤ 40 µM
[5]
  IC25 growth inhibition: > 160 µM
[6]
  IC25 growth inhibition: ≤ 80 µM
[7]
  IC25 growth inhibition: > 160 µM
[8]
  IC25 growth inhibition: ≤ 80 µM
[9]
  IC25 growth inhibition: ≤ 80 µM
[10]
  IC25 growth inhibition: ≤ 40 µM
[11]
  IC25 growth inhibition: ≤ 40 µM
[12]
  IC25 growth inhibition: > 160 µM
[13]
  IC25 growth inhibition: ≤ 40 µM
[14]
  IC25 growth inhibition: ≤ 160 µM
[15]
  IC25 growth inhibition: ≤ 40 µM
[16]
  IC25 growth inhibition: ≤ 80 µM
[17]
  IC25 growth inhibition: ≤ 80 µM
[18]
  IC25 growth inhibition: > 160 µM
[19]
  IC25 growth inhibition: > 80 µM
[20]
  IC25 growth inhibition: > 80 µM
[21]
  IC25 growth inhibition: ≤ 80 µM
[22]
  IC25 growth inhibition: > 160 µM
[23]
  IC25 growth inhibition: > 80 µM
[24]
  IC25 growth inhibition: > 160 µM
[25]; [28]
  community biomass OD578: 0.941
[25]; [29]
  community biomass OD578: 0.979
[25]; [30]
  community biomass OD578: 0.953
[25]; [31]
  community biomass OD578: 0.928
[25]; [32]
  community biomass OD578: 0.731

## O=c1[nH]c(=O)n([C@H]2C[C@H](O)[C@@H](CO)O2)cc1F [Floxuridine]
[1]
  IC25 growth inhibition: < 1.25 µM
[2]
  IC25 growth inhibition: < 1.25 µM
[3]
  IC25 growth inhibition: < 1.25 µM
[4]
  IC25 growth inhibition: < 1.25 µM
[5]
  IC25 growth inhibition: ≤ 80 µM
[6]
  IC25 growth inhibition: < 1.25 µM
[7]
  IC25 growth inhibition: < 1.25 µM
[8]
  IC25 growth inhibition: ≤ 160 µM
[9]
  IC25 growth inhibition: > 160 µM
[10]
  IC25 growth inhibition: > 160 µM
[11]
  IC25 growth inhibition: > 160 µM
[12]
  IC25 growth inhibition: ≤ 10 µM
[13]
  IC25 growth inhibition: > 160 µM
[14]
  IC25 growth inhibition: ≤ 80 µM
[15]
  IC25 growth inhibition: > 160 µM
[16]
  IC25 growth inhibition: > 160 µM
[17]
  IC25 growth inhibition: ≤ 2.5 µM
[18]
  IC25 growth inhibition: ≤ 40 µM
[19]
  IC25 growth inhibition: ≤ 20 µM
[20]
  IC25 growth inhibition: < 1.25 µM
[21]
  IC25 growth inhibition: < 1.25 µM
[22]
  IC25 growth inhibition: ≤ 10 µM
[23]
  IC25 growth inhibition: ≤ 20 µM
[24]
  IC25 growth inhibition: ≤ 5 µM
[25]; [28]
  community biomass OD578: 0.993
[25]; [29]
  community biomass OD578: 0.907
[25]; [30]
  community biomass OD578: 0.886
[25]; [31]
  community biomass OD578: 0.882
[25]; [32]
  community biomass OD578: 0.88

## N[C@@H](Cc1cc(I)c(Oc2cc(I)c(O)c(I)c2)c(I)c1)C(=O)O [L-Thyroxin]
[1]
  IC25 growth inhibition: > 160 µM
[2]
  IC25 growth inhibition: > 160 µM
[3]
  IC25 growth inhibition: > 160 µM
[4]
  IC25 growth inhibition: > 160 µM
[5]
  IC25 growth inhibition: > 160 µM
[6]
  IC25 growth inhibition: > 160 µM
[7]
  IC25 growth inhibition: > 160 µM
[8]
  IC25 growth inhibition: > 160 µM
[9]
  IC25 growth inhibition: > 160 µM
[10]
  IC25 growth inhibition: > 160 µM
[11]
  IC25 growth inhibition: ≤ 80 µM
[12]
  IC25 growth inhibition: > 40 µM
[13]
  IC25 growth inhibition: > 160 µM
[14]
  IC25 growth inhibition: > 160 µM
[15]
  IC25 growth inhibition: > 160 µM
[16]
  IC25 growth inhibition: > 160 µM
[17]
  IC25 growth inhibition: > 160 µM
[18]
  IC25 growth inhibition: > 160 µM
[19]
  IC25 growth inhibition: > 160 µM
[20]
  IC25 growth inhibition: > 160 µM
[21]
  IC25 growth inhibition: > 160 µM
[22]
  IC25 growth inhibition: > 160 µM
[23]
  IC25 growth inhibition: > 160 µM
[24]
  IC25 growth inhibition: > 160 µM
[25]; [26]
  community biomass OD578: 0.996
[25]; [27]
  community biomass OD578: 0.999
[25]; [28]
  community biomass OD578: 1.01
[25]; [29]
  community biomass OD578: 1.03
[25]; [30]
  community biomass OD578: 1.02
